Values of other authors as cited in US10392669B2, “Methods and systems for determination of an effective therapeutic regimen and drug discovery” (DNA-SEQ, INC., priority 2014, dated 2019).
Entries after “also recorded” stand apart in the source; their conditions may differ.

Legend:
[1] = system: catalytic cores of kinases; details: cancer patients, bracketed literature reference; for Activating Mutations: known activating mutations within the kinase catalytic core listed for the drug; for Resistant Mutations: known resistance mutations within the kinase catalytic core listed for the drug
ERBB2 T798I = ERBB2 T798I (Homo sapiens, UniProt P04626, T798I); details: Gene ERBB2, Mutation T798I; full finding: Not reported to be in a before/after study, but does cause drug resistance
kinase DFG motif = details: crystal structure library

Row | Compound | Activating Mutations [1] | Resistant Mutations [1] | also measured
1 | O=C(c1ccc(F)c(F)c1Nc1ccc(I)cc1F)N1CC(O)([C@@H]2CCCCN2)C1 [Cobimetinib] | Braf: V600 mutation [9] | – | –
2 | C[C@@H](Oc1cc(-c2cnn(C3CCNCC3)c2)cnc1N)c1c(Cl)ccc(F)c1Cl [Crizotinib] | ALK: I117IN, R1275Q [10] | – | –
3 | C#Cc1cccc(Nc2ncnc3cc(OCCOC)c(OCCOC)cc23)c1 [Erlotinib] | EGFR: L858R [12] | – | –
4 | COc1cc2ncnc(Nc3ccc(F)c(Cl)c3)c2cc1OCCCN1CCOCC1 [Gefitinib] | EGFR: L858R, L861Q [14] | – | –
5 | Cc1ccc(NC(=O)c2ccc(CN3CCN(C)CC3)cc2)cc1Nc1nccc(-c2cccnc2)n1 [Imatinib] | – | KIT: T670I; also recorded: ABL: T315I [17] | –
6 | CS(=O)(=O)CCNCc1ccc(-c2ccc3ncnc(Nc4ccc(OCc5cccc(F)c5)c(Cl)c4)c3c2)o1 [Lapatinib] | – | HER2: L755S [18] | Finding (ERBB2 T798I): Not reported to be in a before/after
7 | COc1cc2nccc(Oc3ccc(NC(=O)NC4CC4)c(Cl)c3)c2cc1C(N)=O [Lenvatinib] | RET: C634W, M918T [19] | – | –
8 | Cc1cn(-c2cc(NC(=O)c3ccc(C)c(Nc4nccc(-c5cccnc5)n4)c3)cc(C(F)(F)F)c2)cn1 [Nilotinib] | BCR/ABL: F317L [3] | – | DFG conformation bound (kinase DFG motif): binds the DFG out conformation
9 | C=CC(=O)Nc1cc(Nc2nccc(-c3cn(C)c4ccccc34)n2)c(OC)cc1N(C)CCN(C)C [Osimertinib] | EGFR: T790M [20] | – | –
10 | CNC(=O)c1cc(Oc2ccc(NC(=O)Nc3ccc(Cl)c(C(F)(F)F)c3)cc2)ccn1 [Sorafenib] | PDGFRA: T674I [26] | FIP1LI-PDGFRA: D842V | –
